Results taken from article PMC8329300, “X-ray crystallography reveals molecular recognition mechanism for sugar binding in a melibiose transporter MelB” (Communications Biology, 2021).

Target: T1, MelBSt D59C (Salmonella typhimurium, UniProt P30878, D59C)
T1 construct: Cys scanning mutagenesis for the full-length MelBSt; expressed in transfected cells; host or cells: E. coli DW2 (melA+, melB-, lacZ-Y-)
Experiment: [3H]Melibiose transport time course with DW2 intact cells expressing MelBSt D59C
Assay type: cell-based
Settings: 0.4 mM [3H]melibiose
Protocol: Fig. 1 Functional characterizations. a [^3H] Melibiose transport time course with intact cells. E. coli DW2 strain (melB^−, lacZ^−Y^−) expressed with the WT, D59C, or D59A MelBSt mutants were subjected to [^3H]melibiose active transport assay at 0.4 mM and 10 mCi/mmol in the presence of 20 mM or 100 mM NaCl or LiCl by a fast filtration method. Inset, melibiose fermentation assay. Transformants with DW2 strain were plated on MacConkey agar plates containing 30 mM melibiose as the sole carbohydrate source and pH sensor neutral red, and incubated at 37 °C for 16–18 h before imaging. Number of tests = 3, from different batch of cells or duplicate measurements from same batch of sample. b Ligand binding by Trp→dansyl galactoside (D^2G) FRET assay. Purified proteins at 1 μM concentration in 20 mM Tris-HCl, pH 7.5, 100 mM CholCl, 10% glycerol, and 0.03% UDM were subjected to steady-state fluorescence measurements as described in Methods. On the time-trace, 1.8 μL of 1 mM D^2G at 10 μM was added into 180 μL of protein solutions at 1-min point, followed by supplying 10 μL of 5 mM DDMB or 5 mM α-NPG to displace the bound D^2G. For testing Na^+ or Li^+ binding, they are added into the solution before displacement with the second sugar. The structure of DDMB or α-NPG is shown in a chair form, and the carbon positions are labeled. Glycosidic bonds are indicated by arrows. Both are α-galactosides containing a substituent at the anomeric carbon-1. The data were from duplicate measurements.
The overexpression of MelBSt was carried out in the E. coli DW2 strain (melA^+, melB^−, and lacZ^−Y^−) from a constitutive expression plasmid pK95ΔAH/MelBSt/CHis10[9],[28],[33]. The D59C or D59A mutant with Cys or Ala at the position 59, respectively, was constructed previously[9] or in this study by QuikChange Site-Directed Mutagenesis kit and confirmed by DNA sequencing analysis. E. coli DW2 cells containing a given plasmid were grown in Luria-Bertani (LB) broth (5 g yeast extract and 10 g tryptone per liter with 171 mM NaCl) with 100 mg/L of ampicillin in a 37 °C shaker. The overnight cultures were diluted by 5% with LB broth supplemented with 0.5% glycerol and 100 mg/L of ampicillin, and constitutive overexpression was obtained by shaking at 30 °C for another 5 h.
E. coli DW2 cells expressing MelBSt were washed with 100 mM KPi, pH 7.5, to remove Na^+ contamination as described previously. The cell pellets were resuspended with the assay buffer (100 mM KPi, pH 7.5, 10 mM MgSO4) and adjusted to A420 of 10 (∼0.7 mg protein/ml). Using a fast filtration, transport time course at 0.4 mM melibiose (at specific activity of 10 mCi/mmol) was carried out in the absence or presence of NaCl or LiCl at 20 mM or 100 mM, respectively, and intracellular melibiose was determined as described previously.

T1 sequence (P30878 whole entry D59C): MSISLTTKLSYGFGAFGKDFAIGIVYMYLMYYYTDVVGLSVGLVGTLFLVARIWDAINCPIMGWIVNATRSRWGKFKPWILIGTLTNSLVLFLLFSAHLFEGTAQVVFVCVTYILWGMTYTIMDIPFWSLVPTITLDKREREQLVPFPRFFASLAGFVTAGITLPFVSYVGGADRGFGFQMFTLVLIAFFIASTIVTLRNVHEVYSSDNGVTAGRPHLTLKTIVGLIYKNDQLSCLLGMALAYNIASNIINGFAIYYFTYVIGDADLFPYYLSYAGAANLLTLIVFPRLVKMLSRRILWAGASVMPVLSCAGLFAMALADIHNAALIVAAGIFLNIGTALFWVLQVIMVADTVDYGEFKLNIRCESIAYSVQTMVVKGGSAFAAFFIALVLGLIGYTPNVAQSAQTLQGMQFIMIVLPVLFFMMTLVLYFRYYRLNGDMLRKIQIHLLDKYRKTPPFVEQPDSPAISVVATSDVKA

## OC[C@H]1O[C@H](OCC2O[C@@H](O)[C@H](O)[C@@H](O)[C@@H]2O)[C@H](O)[C@@H](O)[C@H]1O (stereo partly shown) [Melibiose]
H+, Time 0.08
  Melibiose transport: 2.90
H+, Time 0.17
  Melibiose transport: 4.95
H+, Time 0.50
  Melibiose transport: 7.21
H+, Time 1.00
  Melibiose transport: 7.87
H+, Time 2.00
  Melibiose transport: 9.68
H+, Time 5.00
  Melibiose transport: 7.94
H+, Time 10.00
  Melibiose transport: 6.75
H+, Time 30.00
  Melibiose transport: 4.22
Li+, 20 mM, Time 0.08
  Melibiose transport: 4.23
Li+, 20 mM, Time 0.17
  Melibiose transport: 7.46
Li+, 20 mM, Time 0.50
  Melibiose transport: 9.40
Li+, 20 mM, Time 1.00
  Melibiose transport: 8.14
Li+, 20 mM, Time 2.00
  Melibiose transport: 8.43
Li+, 20 mM, Time 5.00
  Melibiose transport: 9.92
Li+, 20 mM, Time 10.00
  Melibiose transport: 9.02
Li+, 20 mM, Time 30.00
  Melibiose transport: 7.58
Li+, 100 mM, Time 0.08
  Melibiose transport: 5.34
Li+, 100 mM, Time 0.17
  Melibiose transport: 7.70
Li+, 100 mM, Time 0.50
  Melibiose transport: 7.46
Li+, 100 mM, Time 1.00
  Melibiose transport: 5.16
Li+, 100 mM, Time 2.00
  Melibiose transport: 7.88
Li+, 100 mM, Time 5.00
  Melibiose transport: 5.54
Li+, 100 mM, Time 10.00
  Melibiose transport: 7.56
Li+, 100 mM, Time 30.00
  Melibiose transport: 11.83
Na+, 20 mM, Time 0.08
  Melibiose transport: 4.91
Na+, 20 mM, Time 0.17
  Melibiose transport: 5.04
Na+, 20 mM, Time 0.50
  Melibiose transport: 6.31
Na+, 20 mM, Time 1.00
  Melibiose transport: 7.41
Na+, 20 mM, Time 2.00
  Melibiose transport: 16.16
Na+, 20 mM, Time 5.00
  Melibiose transport: 8.09
Na+, 20 mM, Time 10.00
  Melibiose transport: 6.24
Na+, 20 mM, Time 30.00
  Melibiose transport: 9.30
Na+, 100 mM, Time 0.08
  Melibiose transport: 0.60
Na+, 100 mM, Time 0.17
  Melibiose transport: 4.32
Na+, 100 mM, Time 0.50
  Melibiose transport: 10.86
Na+, 100 mM, Time 1.00
  Melibiose transport: 12.92
Na+, 100 mM, Time 2.00
  Melibiose transport: 6.61
Na+, 100 mM, Time 5.00
  Melibiose transport: 1.42
Na+, 100 mM, Time 10.00
  Melibiose transport: 5.04
Na+, 100 mM, Time 30.00
  Melibiose transport: 9.00
